Data as given in ChEMBL document CHEMBL3046585, “Antifungal activity of a novel quercetin derivative bearing a trifluoromethyl group on Candida albicans” (Med Chem Res, 2012).
Calls of active or inactive are those of the source. The rule behind the calls is not given here.

Legend:
Candida albicans [1] = test: Antifungal activity against Candida albicans PC31 at 0.15 mg/ml after 48 hr; format: functional, organism-based
Candida albicans [2] = test: Antifungal activity against Candida albicans PC31 at 1.60 mg/ml after 48 hr; format: functional, organism-based
Candida albicans [3] = test: Antifungal activity against Candida albicans PC31 at 0.06 mg/ml after 48 hr; format: functional, organism-based
Candida albicans [4] = test: Antifungal activity against Candida albicans PC31 at 2.20 mg/ml after 48 hr; format: functional, organism-based
Candida albicans [5] = test: Antifungal activity against Candida albicans PC31 at 1.30 mg/ml after 48 hr; format: functional, organism-based
Candida albicans [6] = test: Antifungal activity against Candida albicans PC31 at 2.50 mg/ml after 48 hr; format: functional, organism-based
Candida albicans [7] = test: Antifungal activity against Candida albicans PC31 at 0.30 mg/ml after 48 hr; format: functional, organism-based
Candida albicans [8] = test: Antifungal activity against Candida albicans PC31 at 0.50 mg/ml after 48 hr; format: functional, organism-based
Candida albicans [9] = test: Antifungal activity against Candida albicans PC31 at 1.90 mg/ml after 48 hr; format: functional, organism-based
[10] = 1-octanol-water partition coefficient, log P of the compound; format: physicochemical
Candida albicans [11] = test: Antifungal activity against Candida albicans PC31 at 0.60 mg/ml after 48 hr; format: functional, organism-based
Candida albicans [12] = test: Antifungal activity against Candida albicans PC31 at 0.40 mg/ml after 48 hr; format: functional, organism-based
Candida albicans [13] = test: Antifungal activity against Candida albicans PC31 at 2.10 mg/ml after 48 hr; format: functional, organism-based
Candida albicans [14] = test: Antifungal activity against Candida albicans PC31 at 1.25 mg/ml after 48 hr; format: functional, organism-based

Row | Compound | Activity (Candida albicans [1]) | Activity (Candida albicans [2]) | Activity (Candida albicans [3]) | Activity (Candida albicans [4]) | Activity (Candida albicans [5]) | Activity (Candida albicans [6]) | Activity (Candida albicans [7]) | Activity (Candida albicans [8]) | Activity (Candida albicans [9]) | logP [10] | Activity (Candida albicans [11]) | Activity (Candida albicans [12]) | Activity (Candida albicans [13]) | Activity (Candida albicans [14])
1 | C[C@@H]1O[C@@H](OC[C@H]2O[C@@H](Oc3c(-c4ccc(O)c(O)c4)oc4cc(O)cc(O)c4c3=O)[C@H](O)[C@@H](O)[C@@H]2O)[C@H](O)[C@H](O)[C@H]1O [RUTIN] | inactive | inactive | inactive | Active | inactive | Active | inactive | inactive | inactive | 0.31 | inactive | inactive | inactive | inactive
2 | O=c1c(O)c(-c2ccc(O)c(Oc3c([N+](=O)[O-])cc(C(F)(F)F)cc3[N+](=O)[O-])c2)oc2cc(O)cc(O)c12 | inactive | Active | inactive | Active | Active | Active | inactive | inactive | Active | 0.62 | Active | inactive | Active | Active
